Data from patent publication US10106536B2, “Imidazo(4,5-B) pyridin-2-yl amides as KV7 channel activators” (Knopp Biosciences LLC, priority 2013, dated 2018).

target: T1, Kv7.2/7.3 (Homo sapiens, UniProt O43525+O43526); test: Kv7.2/7.3 activation assay, QPatch planar patch-clamp, single concentration screen; assay type: cell-based; conditions: compound 3 μM; Kv7.2/Kv7.3 co-expressing HEK cells; steady-state current at end of 1 s pulse to −30 mV
T1 construct: host or cells: HEK cells, tetracycline-inducible expression
Protocol: Kv7.2/7.3 Activation Assay
The ability of compounds to potentiate K-currents in KV7.2/7.3 containing HEK cells was assessed using planar patch-clamp on the QPatch automated screening platform.
The hKV7.2/7.3 cell line was obtained from Chantest (Cleveland, Ohio 44128) cat.# CT6147. These HEK cells will express the Kv7.2/7.3 ion channels when induced.
Cell Culture: Cells were maintained in a media containing DMEM/F12; 50/50 (GIBCO cat.#11330), 10% Fetal Bovine Serum (FBS) (GIBCO cat.#26140), 100 units/mL Penicillin-Streptomycin (GIBCO cat.#15140), 0.005 mg/mL Blasticidin (INVIVOGEN cat.# ant-bl-1), 0.5 mg/mL Geneticin (GIBCO cat.#10131), 0.1 mg/mL Zeocin (GIBCO cat.# R25001). Cells used in the electrophysiology assay were maintained in a media without Blasticidin, Geneticin and Zeocin for 2 days and channel expression was induced by adding tetracycline (BIOLINE cat.# BIO-87030) at a final concentration of […]. Cells were grown in T-175 flask to ˜75% confluency. Currents were recorded 24 hours after channel induction.
Test compounds were prepared by performing serial dilutions on a Biomek NX^P (BECKMAN COULTER). Final dilutions were made in external recording solution with a final DMSO concentration of 0.1% DMSO. For single concentration screens each plate had 10 μM retigabine as a positive control and 0.1% DMSO as a negative control.
On the day of the experiment cells were washed with Hank's Balanced Salt Solution (HBBS) (GIBCO cat.#14175) and harvested with Tryple (GIBCO cat.#12604). Cells were then centrifuged at 2000 rpm for 5 minutes and resuspended in CHO-S-SFM (GIBCO cat.#12052) at ˜3×10^6 cells/mL. Cells were stirred for 30 minutes before experiments were started. External recording solution contained (in mM): NaCl (145), KCl (4), CaCl2 (2), MgCl2 (1), HEPES (10) and Glucose (10); pH was adjusted to 7.4 with NaOH and the osmolarity was adjusted to 300-305 mOsM with sucrose if necessary. Internal solution contained (in mM): KCl (125), KF (10), EGTA (5), Na2ATP (5), MgCl2 (3.2), HEPES (5); pH was adjusted to 7.2 with KOH and the osmolarity was adjusted to 298-302 mOsM with sucrose.
Potassium channel activity was measured on the QPatch HTX (Sophion Bioscience) using QPlates with 48-wells/plate. Each cell was taken as an independent experiment and only one compound was tested per well. Potassium channel activity was elicited by holding at −80 mV and stepping to −30 mV for 1 s followed by a 100 ms pulse to −120 mV.
Baseline conditions were obtained by recording 5 sweeps in the external solution only, this was repeated for three applications of the external solution. The effect of test compounds on elicited current was then assessed by recording 5 sweeps in the presence of a 3 μM or 10 μM compound solution. The steady-state current at the end of the 1 s pulse to −30 mV was measured to determine the fold increase from baseline.

SMILES | Kv7.2/7.3 Activity at 3 μM (increase in current over baseline)
O=C(CC(C(F)(F)F)C(F)(F)F)Nc1nc2ccc(Cl)nc2n1C1CCC1 [Example 6, N-(5-chloro-3-cyclobutyl-3H-imidazo[4,5-b]pyridin-2-yl)-4,4,4-trifluoro-3-(trifluoromethyl)butanamide] | − (<1.2-fold increase over baseline (−))
CC1(C)[C@H]2CC[C@@H](CC(=O)Nc3nc4cccnc4n3C3CCC3)[C@@H]1C2 [Example 24, N-(3-cyclobutyl-3H-imidazo[4,5-b]pyridin-2-yl)-2-((1S,2S,5S)-6,6-dimethylbicyclo[3.1.1]heptan-2-yl)acetamide] | +++ (>6-fold increase over baseline (+++))

same assay, conditions: compound 10 μM; Kv7.2/Kv7.3 co-expressing HEK cells; steady-state current at end of 1 s pulse to −30 mV

SMILES | Kv7.2/7.3 Activity at 10 μM (increase in current over baseline)
CC(C)(C)OCCC(=O)Nc1nc2cccnc2n1C1CCC1 [Example 3, 3-(tert-butoxy)-N-(3-cyclobutyl-3H-imidazo[4,5-b]pyridin-2-yl)propanamide] | +++ (>6-fold increase over baseline (+++))
O=C(CC1CC2CCC1C2)Nc1nc2ccc(Cl)nc2n1C1CCC1 (stereo not shown) [Example 9, 2-(bicyclo[2.2.1]heptan-2-yl)-N-(5-chloro-3-cyclobutyl-3H-imidazo[4,5-b]pyridin-2-yl)acetamide] | +++ (>6-fold increase over baseline (+++))
CC1(C)[C@H]2CC[C@@H](CC(=O)Nc3nc4cccnc4n3C3CCC3)[C@@H]1C2 [Example 24, N-(3-cyclobutyl-3H-imidazo[4,5-b]pyridin-2-yl)-2-((1S,2S,5S)-6,6-dimethylbicyclo[3.1.1]heptan-2-yl)acetamide] | +++ (>6-fold increase over baseline (+++))
O=C(CCC1CCCC1)Nc1nc2ccc(Cl)nc2n1C1CCC1 [Example 27, N-(5-chloro-3-cyclobutyl-3H-imidazo[4,5-b]pyridin-2-yl)-3-cyclopentylpropanamide] | +++ (>6-fold increase over baseline (+++))
CC(C)CC(=O)Nc1nc2ccc(Cl)nc2n1C1CCC1 [Example 28, N-(5-chloro-3-cyclobutyl-3H-imidazo[4,5-b]pyridin-2-yl)-3-methylbutanamide] | +++ (>6-fold increase over baseline (+++))
O=C(CC1CCCCC1)Nc1nc2ccc(Cl)nc2n1C1CCC1 [Example 29, N-(5-chloro-3-cyclobutyl-3H-imidazo[4,5-b]pyridin-2-yl)-2-cyclohexylacetamide] | +++ (>6-fold increase over baseline (+++))
CC1(C)[C@H]2CC[C@@H](CC(=O)Nc3nc4ccc(Cl)nc4n3C3CCC3)[C@@H]1C2 [Example 33, N-(5-chloro-3-cyclobutyl-3H-imidazo[4,5-b]pyridin-2-yl)-2-((1S,2S,5S)-6,6-dimethylbicyclo[3.1.1]heptan-2-yl)acetamide] | +++ (>6-fold increase over baseline (+++))
CCOCC(=O)Nc1nc2ccc(Cl)nc2n1C1CCC1 [Example 34, N-(5-chloro-3-cyclobutyl-3H-imidazo[4,5-b]pyridin-2-yl)-2-ethoxyacetamide] | − (<1.2-fold increase over baseline (−))
O=C(CCc1ccccc1)Nc1nc2ccc(Cl)nc2n1C1CCC1 [Example 35, N-(5-chloro-3-cyclobutyl-3H-imidazo[4,5-b]pyridin-2-yl)-3-phenylpropanamide] | +++ (>6-fold increase over baseline (+++))
CC(C)Cn1c(NC(=O)CC(C)(C)C)nc2ccc(Cl)nc21 [Example 36, N-(5-chloro-3-isobutyl-3H-imidazo[4,5-b]pyridin-2-yl)-3,3-dimethylbutanamide] | +++ (>6-fold increase over baseline (+++))
CC(C)(C)CC(=O)Nc1nc2ccc(C(F)(F)F)nc2n1C1CCC1 [Example 39, N-(3-cyclobutyl-5-(trifluoromethyl)-3H-imidazo[4,5-b]pyridin-2-yl)-3,3-dimethylbutanamide] | +++ (>6-fold increase over baseline (+++))
